The source made the active and inactive calls.
Legend:
Beta-galactosidase = Beta-galactosidase (Escherichia coli, UniProt Q8VNN2); assay: PubChem AID 485352; format: functional
[1] = target: T1, Type-1 angiotensin II receptor (Homo sapiens, UniProt P30556); assay: antagonism of angiotensin II type 1 receptor – cell-based, uHTS hits, selectivity assay for APJ receptor antagonist project, dose response (AID 463214); format: functional;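 further: antagonist potency against angiotensin II stimulated AT1 response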
T1 sequence (P30556 whole entry): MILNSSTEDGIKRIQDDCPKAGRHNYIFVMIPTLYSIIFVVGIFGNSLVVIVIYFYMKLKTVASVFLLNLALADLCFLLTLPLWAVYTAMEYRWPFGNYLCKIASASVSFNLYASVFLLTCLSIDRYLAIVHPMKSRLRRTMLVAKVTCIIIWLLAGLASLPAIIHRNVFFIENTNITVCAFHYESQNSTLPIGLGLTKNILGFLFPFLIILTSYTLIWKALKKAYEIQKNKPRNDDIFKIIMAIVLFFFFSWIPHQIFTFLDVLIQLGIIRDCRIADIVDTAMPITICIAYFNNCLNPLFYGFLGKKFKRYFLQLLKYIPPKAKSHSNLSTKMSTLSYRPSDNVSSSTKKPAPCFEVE

P388 = assay: cells; format: functional; conditions: Mus musculus
SN12K1 = assay: cells; format: functional; conditions: Homo sapiens
P388/ADR = assay: cells; format: functional; conditions: Mus musculus
[2] = target: T2, Probable nicotinate-nucleotide adenylyltransferase (Staphylococcus aureus (strain N315), UniProt P65502); format: functional, Staphylococcus aureus subsp. aureus N315;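 on IC50 Mean: confirmatory dose-response retesting of NadD inhibitor hits first found in an ultra-high-throughput screen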
[3] = target: T2, Probable nicotinate-nucleotide adenylyltransferase; format: functional, Staphylococcus aureus subsp. aureus N315; conditions: read-out: IC50_Mean
Protein skinhead-1 = target: T3, Protein skinhead-1 (Caenorhabditis elegans, UniProt P34707); format: functional
T3 sequence (P34707 whole entry): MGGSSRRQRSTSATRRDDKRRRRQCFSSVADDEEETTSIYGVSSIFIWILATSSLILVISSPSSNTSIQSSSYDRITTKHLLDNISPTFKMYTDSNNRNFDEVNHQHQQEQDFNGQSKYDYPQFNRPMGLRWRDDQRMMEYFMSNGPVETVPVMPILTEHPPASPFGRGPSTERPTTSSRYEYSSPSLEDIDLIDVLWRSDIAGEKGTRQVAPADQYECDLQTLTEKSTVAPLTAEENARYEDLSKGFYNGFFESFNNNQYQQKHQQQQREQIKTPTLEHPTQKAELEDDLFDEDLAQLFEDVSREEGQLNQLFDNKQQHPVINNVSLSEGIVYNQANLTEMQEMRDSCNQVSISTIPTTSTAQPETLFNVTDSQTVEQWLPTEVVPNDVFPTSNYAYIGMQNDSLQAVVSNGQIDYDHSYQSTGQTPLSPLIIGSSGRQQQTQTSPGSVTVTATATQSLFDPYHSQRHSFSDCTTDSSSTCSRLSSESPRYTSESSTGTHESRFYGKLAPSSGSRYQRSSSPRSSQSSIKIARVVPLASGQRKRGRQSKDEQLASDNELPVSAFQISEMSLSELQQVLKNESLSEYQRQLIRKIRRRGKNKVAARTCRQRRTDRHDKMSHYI

[4] = HIV-1 AD8 envelope cell-cell fusion blockers – cherry-pick, dose response (AID 652062); format: functional, cell-based;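 further: luciferase signal from cell-cell fusion driven by HIV-1 clade B AD8 Env; potency is for inhibitors of fusion seen as a drop in luminescence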
[5] = off-target signal loss in HeLa-CEM21 co-culture – HeLa F-luc CTL cells, cherry-picked, counter-screen for HIV-1 Env fusion inhibitor project, dose response (AID 652040); format: functional, cell-based;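 further: potency for signal decrease marking cytotoxic or nonspecific inhibition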
Cytochrome P450 3A4 = Cytochrome P450 3A4 (Homo sapiens, UniProt P08684);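 further: CYP3A4 tested as one member of a cytochrome P450 panel screen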
Cytochrome P450 2C19 = Cytochrome P450 2C19 (Homo sapiens, UniProt P33261); assay: Cytochrome panel assay with activity outcomes. Panel member name: p450-cyp2c19 Compounds with AC50 equal or less than 10 uM are considered active; format: functional; conditions: read-out: AC50
[6] = target: T4, Endoribonuclease toxin MazF (Escherichia coli K-12, UniProt P0AE70); assay: substrate-only fluorescence increase artefacts – biochemical, single-stranded RNase substrate, counter-screen for MazEF activator project, dose response (AID 588502); format: functional
T4 sequence (P0AE70 whole entry): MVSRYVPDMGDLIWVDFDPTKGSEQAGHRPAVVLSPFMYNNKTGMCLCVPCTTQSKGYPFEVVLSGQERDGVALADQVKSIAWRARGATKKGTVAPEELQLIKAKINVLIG

[7] = target: T4, Endoribonuclease toxin MazF; assay: activation of MazEF endoribonuclease cleavage – biochemical, fluorescence, single-stranded RNA substrate, uHTS hits, dose response (AID 588481); format: functional
Cytochrome P450 2D6 = Cytochrome P450 2D6 (Homo sapiens, UniProt P10635);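 further: CYP2D6 member of a cytochrome P450 panel assay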
Cytochrome P450 2C9 = Cytochrome P450 2C9 (Homo sapiens, UniProt P11712)
Cytochrome P450 1A2 = target: T5, Cytochrome P450 1A2 (Homo sapiens, UniProt P05177);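 further: PubChem cytochrome P450 panel assay, CYP1A2 panel member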
T5 sequence (P05177 whole entry): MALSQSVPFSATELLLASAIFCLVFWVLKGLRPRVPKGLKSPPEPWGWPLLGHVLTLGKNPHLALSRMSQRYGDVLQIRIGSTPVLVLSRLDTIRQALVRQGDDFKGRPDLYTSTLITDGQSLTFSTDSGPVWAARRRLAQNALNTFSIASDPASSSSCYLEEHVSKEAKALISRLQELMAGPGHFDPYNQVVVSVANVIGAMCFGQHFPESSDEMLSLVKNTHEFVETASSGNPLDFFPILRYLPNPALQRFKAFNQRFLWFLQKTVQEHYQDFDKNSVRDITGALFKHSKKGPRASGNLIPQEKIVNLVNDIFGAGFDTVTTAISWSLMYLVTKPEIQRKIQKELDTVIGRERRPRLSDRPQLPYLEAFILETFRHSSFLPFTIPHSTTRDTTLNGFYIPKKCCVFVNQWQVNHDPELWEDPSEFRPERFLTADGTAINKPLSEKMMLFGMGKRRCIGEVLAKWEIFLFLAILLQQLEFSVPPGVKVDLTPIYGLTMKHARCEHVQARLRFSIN

Melanocortin receptor 4 = Melanocortin receptor 4 (Homo sapiens, UniProt P32245); assay: inhibitors of MC4R cAMP signaling – cell-based, TR-FRET, biased antagonists, dose response (AID 602298); format: functional;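 further: antagonist potency against agonist-stimulated cAMP production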
[8] = target: T6, Rac GTPase-activating protein 1 (Homo sapiens, UniProt Q9H0H5); assay: blockers of MgcRacGAP-driven Rac1 GTP hydrolysis – biochemical, ADP Hunter fluorescence, primary and confirmatory, confirmation (AID 624330); format: functional
T6 sequence (Q9H0H5 whole entry): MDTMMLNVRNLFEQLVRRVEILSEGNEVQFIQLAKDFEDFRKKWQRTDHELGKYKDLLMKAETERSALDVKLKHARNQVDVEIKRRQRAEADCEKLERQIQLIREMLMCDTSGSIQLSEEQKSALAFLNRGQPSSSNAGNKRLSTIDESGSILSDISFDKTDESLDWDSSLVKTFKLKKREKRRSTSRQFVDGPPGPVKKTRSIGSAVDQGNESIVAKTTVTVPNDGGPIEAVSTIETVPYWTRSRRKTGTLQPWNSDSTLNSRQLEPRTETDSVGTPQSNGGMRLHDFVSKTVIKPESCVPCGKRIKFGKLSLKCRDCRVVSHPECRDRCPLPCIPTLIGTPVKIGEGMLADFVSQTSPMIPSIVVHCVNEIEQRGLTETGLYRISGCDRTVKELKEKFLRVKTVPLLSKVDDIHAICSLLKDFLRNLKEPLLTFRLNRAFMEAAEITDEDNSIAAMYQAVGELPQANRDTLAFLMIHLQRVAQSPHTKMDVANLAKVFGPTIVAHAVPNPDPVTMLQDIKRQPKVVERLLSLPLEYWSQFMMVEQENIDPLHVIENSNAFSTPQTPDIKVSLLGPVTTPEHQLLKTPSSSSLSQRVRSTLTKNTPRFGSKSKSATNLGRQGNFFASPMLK

[9] = cAMP pathway inhibition in counterscreen cell line – TR-FRET cAMP detection, counter-screen for MC4R biased antagonist project, dose response (AID 602305); format: functional, cell-based;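 further: U2OS cells stimulated with forskolin near its EC80 as the cAMP inducer; potency is for inhibition of forskolin-stimulated cAMP signaling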
Nonstructural protein 1 = Nonstructural protein 1 (Influenza A virus, UniProt Q194T2); format: functional, Influenza A virus (A/California/07/2009(H1N1))
[10] = target: Heat shock protein HSP 90-alpha (Homo sapiens, UniProt P07900); format: functional, organism-based
Vero = assay: cells; format: functional; conditions: Chlorocebus sabaeus
[11] = viability loss in HeLa cells – cytotoxicity control for MgcRacGAP inhibitor project, dose response (AID 624300); format: functional
[12] = target: T7, Small ubiquitin-related modifier 1 (Homo sapiens, UniProt P63165); assay: SUMO1 protein-protein binding blockers, potency – biochemical, FRET, dose response (AID 624383); format: functional; conditions: read-out: IC50_Mean
[13] = target: T7, Small ubiquitin-related modifier 1; assay: SUMO1 protein interaction blockers, potency – biochemical, fluorescence polarization, uHTS hits, dose response (AID 624382); format: functional; conditions: read-out: IC50_Mean
[14] = Fluorescence-based cell-based high throughput dose response assay for inhibitors of the interaction of nucleotide-binding oligomerization domain containing 2 (NOD2) and the receptor-interacting serine-threonine kinase 2 (RIPK2).; format: functional; conditions: Homo sapiens

T2 sequence (P65502 whole entry): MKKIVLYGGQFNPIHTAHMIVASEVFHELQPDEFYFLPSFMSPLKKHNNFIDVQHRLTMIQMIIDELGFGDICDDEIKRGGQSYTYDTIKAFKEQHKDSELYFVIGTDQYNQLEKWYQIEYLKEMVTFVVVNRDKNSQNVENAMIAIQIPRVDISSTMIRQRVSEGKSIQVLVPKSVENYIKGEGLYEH
T7 sequence (P63165 whole entry): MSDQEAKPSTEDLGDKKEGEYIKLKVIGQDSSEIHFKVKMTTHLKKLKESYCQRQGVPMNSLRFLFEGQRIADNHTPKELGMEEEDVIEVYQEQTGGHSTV
Cytochrome P450 3A4, sequence (P08684 whole entry): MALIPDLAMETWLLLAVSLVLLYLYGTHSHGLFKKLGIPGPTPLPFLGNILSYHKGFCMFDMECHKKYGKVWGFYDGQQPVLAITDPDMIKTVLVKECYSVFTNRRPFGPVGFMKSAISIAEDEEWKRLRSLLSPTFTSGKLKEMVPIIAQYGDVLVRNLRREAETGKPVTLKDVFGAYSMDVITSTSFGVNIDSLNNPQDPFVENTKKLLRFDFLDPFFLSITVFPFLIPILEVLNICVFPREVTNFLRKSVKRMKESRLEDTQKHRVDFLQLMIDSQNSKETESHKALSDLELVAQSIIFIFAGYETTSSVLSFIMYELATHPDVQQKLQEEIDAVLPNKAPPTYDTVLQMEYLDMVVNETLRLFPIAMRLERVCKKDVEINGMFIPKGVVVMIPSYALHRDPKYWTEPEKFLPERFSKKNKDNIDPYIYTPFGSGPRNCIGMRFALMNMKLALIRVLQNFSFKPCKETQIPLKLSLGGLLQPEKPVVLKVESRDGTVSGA
Beta-galactosidase, sequence (Q8VNN2 whole entry): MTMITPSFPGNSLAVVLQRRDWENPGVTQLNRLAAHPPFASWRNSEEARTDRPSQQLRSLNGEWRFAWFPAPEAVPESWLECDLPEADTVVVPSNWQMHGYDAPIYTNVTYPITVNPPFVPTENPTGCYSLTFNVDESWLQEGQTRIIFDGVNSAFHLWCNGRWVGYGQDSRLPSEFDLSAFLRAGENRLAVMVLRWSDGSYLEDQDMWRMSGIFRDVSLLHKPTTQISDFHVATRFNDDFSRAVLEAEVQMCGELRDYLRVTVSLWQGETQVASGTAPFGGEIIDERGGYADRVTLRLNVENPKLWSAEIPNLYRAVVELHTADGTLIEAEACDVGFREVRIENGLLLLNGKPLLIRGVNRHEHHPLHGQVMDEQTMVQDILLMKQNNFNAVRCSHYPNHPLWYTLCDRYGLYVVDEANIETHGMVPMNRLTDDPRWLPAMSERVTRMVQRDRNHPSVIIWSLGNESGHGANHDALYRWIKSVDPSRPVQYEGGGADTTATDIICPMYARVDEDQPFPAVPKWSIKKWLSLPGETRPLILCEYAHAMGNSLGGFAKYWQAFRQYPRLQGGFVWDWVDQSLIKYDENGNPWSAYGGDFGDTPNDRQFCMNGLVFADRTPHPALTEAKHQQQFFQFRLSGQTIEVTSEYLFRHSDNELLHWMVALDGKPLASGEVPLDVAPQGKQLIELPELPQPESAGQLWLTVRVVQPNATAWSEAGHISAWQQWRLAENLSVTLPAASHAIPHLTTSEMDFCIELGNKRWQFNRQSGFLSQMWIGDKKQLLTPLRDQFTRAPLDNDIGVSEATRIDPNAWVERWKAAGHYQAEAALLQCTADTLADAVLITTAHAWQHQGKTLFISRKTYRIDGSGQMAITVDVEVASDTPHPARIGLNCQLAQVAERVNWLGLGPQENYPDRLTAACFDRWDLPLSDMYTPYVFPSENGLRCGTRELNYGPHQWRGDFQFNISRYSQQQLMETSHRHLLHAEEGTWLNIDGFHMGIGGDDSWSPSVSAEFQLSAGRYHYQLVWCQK
Cytochrome P450 2C9, sequence (P11712 whole entry): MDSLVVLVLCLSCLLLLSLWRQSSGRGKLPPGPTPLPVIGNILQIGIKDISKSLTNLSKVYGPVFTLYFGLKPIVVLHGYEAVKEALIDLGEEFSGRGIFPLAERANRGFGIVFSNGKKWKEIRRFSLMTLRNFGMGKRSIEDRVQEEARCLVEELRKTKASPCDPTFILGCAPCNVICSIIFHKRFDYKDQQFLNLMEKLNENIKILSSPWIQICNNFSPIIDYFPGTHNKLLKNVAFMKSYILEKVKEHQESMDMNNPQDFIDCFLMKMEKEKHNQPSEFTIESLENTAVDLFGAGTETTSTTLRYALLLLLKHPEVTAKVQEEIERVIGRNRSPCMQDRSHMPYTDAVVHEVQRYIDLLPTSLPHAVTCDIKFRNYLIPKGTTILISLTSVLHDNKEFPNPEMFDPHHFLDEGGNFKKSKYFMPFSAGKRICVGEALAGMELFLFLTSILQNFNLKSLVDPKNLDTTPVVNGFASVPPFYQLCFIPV
Cytochrome P450 2D6, sequence (P10635 whole entry): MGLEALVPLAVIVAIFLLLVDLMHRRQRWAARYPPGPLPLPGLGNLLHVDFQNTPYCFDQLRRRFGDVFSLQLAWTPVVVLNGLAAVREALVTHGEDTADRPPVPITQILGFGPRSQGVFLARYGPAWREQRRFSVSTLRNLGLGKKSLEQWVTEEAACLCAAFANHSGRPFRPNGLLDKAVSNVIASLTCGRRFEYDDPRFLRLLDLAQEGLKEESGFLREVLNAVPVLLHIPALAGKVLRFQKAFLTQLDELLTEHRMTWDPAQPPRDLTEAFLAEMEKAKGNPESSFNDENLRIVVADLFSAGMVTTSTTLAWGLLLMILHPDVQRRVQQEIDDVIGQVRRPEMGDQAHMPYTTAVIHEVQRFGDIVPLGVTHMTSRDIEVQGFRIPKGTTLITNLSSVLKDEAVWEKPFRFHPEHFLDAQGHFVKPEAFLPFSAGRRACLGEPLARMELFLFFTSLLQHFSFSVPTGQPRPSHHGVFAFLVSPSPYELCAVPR
Nonstructural protein 1, sequence (Q194T2 whole entry): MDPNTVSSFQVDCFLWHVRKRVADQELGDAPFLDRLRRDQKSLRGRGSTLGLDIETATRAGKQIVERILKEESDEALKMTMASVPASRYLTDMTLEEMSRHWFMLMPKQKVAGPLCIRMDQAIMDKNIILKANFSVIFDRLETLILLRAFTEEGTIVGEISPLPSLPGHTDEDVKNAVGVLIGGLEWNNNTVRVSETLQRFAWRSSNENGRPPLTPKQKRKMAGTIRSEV
Melanocortin receptor 4, sequence (P32245 whole entry): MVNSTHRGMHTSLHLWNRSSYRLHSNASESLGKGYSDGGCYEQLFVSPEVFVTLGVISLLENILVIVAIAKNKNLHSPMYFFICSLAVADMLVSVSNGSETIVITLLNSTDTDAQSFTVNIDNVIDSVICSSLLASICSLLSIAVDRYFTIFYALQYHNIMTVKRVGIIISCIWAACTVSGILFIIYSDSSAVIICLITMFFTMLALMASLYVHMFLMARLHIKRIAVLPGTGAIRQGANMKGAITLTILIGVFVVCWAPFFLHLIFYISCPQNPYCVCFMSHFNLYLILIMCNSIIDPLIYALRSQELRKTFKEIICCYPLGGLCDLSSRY
Cytochrome P450 2C19, sequence (P33261 whole entry): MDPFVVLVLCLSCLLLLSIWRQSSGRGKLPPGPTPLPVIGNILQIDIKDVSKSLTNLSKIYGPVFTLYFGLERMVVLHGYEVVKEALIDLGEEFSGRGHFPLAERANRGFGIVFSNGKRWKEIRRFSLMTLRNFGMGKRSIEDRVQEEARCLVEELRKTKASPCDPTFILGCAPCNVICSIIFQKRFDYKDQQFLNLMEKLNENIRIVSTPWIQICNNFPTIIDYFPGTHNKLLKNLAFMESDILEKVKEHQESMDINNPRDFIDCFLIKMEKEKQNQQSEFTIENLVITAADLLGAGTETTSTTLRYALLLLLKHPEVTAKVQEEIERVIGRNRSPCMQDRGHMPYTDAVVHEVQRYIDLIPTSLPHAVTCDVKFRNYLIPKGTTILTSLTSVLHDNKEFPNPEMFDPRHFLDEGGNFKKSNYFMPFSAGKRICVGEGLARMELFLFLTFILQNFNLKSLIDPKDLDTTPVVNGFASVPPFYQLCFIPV

## Cc1nn(CCC(=O)NNC(S)=NCC(C)C)c(C)c1Br
Beta-galactosidase
  EC50: 32.1 µM (active)
[1]
  IC50: 15.9 µM (active)

## O=NN1C(c2ccccc2)CNC(=O)CC1c1ccccc1 (stereo not given)
P388
  GI50: 21.8 µM (inactive)
SN12K1
  GI50: 39.2 µM (inactive)
P388/ADR
  GI50: 22.8 µM (inactive)

## C/C=C\C=C\C(=O)Nc1cccc(C2=NOC3(C2)C[C@@H](C(N)=O)N(C(=O)C(c2ccccc2)c2ccccc2)C3)c1 (stereo not given in full)
[2]
  IC50: 11.9 µM (active)
[3]
  IC50: 22.8 µM (active)

## COc1ccc(S(=O)(=O)n2ccc(-c3ccc(OCCN(C)c4ccccn4)cc3)n2)cc1
Protein skinhead-1
  IC50: > 100 µM (inactive)
[4]
  AC50: 6.63 µM (active)
[5]
  AC50: 1.81 µM (active)

## COC(=O)N1CCC2(CC1)CN(C(c1ccccc1)c1ccccc1)C2
Cytochrome P450 3A4
  AC50: inconclusive
Cytochrome P450 2C19
  AC50: 39.8 µM (inconclusive)

## CC(=O)O[C@H]1C(=O)O[C@@H]2C[C@H]3C(C)=CC(=O)[C@@H](O)[C@]3(C)[C@H]3[C@@]4(O)OC[C@]32[C@@H]1[C@@H](C)[C@H]4O
P388
  GI50: 0.133 µM (active)
SN12K1
  GI50: 0.0223 µM (active)
P388/ADR
  GI50: 1.66 µM (inactive)

## CCOc1ccc2c(c1)S/C(=C\c1cccs1)C(=O)N2
[6]
  EC50: > 99 µM (inactive)
[7]
  EC50: > 99 µM (inactive)

## N#Cc1cccc(NC(=O)N2CC3(CCN(C(=O)Oc4ccccc4)CC3)C2)c1
Cytochrome P450 3A4
  AC50: inconclusive
Cytochrome P450 2D6
  AC50: 39.8 µM (inconclusive)
Cytochrome P450 2C9
  AC50: 15.8 µM (inconclusive)
Cytochrome P450 1A2
  AC50: 15.8 µM (inconclusive)

## COc1cc(NS(=O)(=O)c2ccc(NC(=S)NC(=O)C3CCCC3)cc2)nc(OC)n1
Beta-galactosidase
  EC50: > 40 µM (inactive)
[1]
  IC50: > 40 µM (not active)

## CS(=O)(=O)OCCCCOS(C)(=O)=O [BUSULFAN]
P388
  GI50: 117 µM (inactive)
SN12K1
  GI50: 215 µM (inactive)
P388/ADR
  GI50: 109 µM (inactive)

## O=C1CCCCN1
P388
  GI50: 764 µM (inactive)
SN12K1
  GI50: > 1120 µM (inactive)
P388/ADR
  GI50: > 1120 µM (inactive)

## COc1ccc(NS(=O)(=O)c2ccc(NC(=S)NC(=O)/C=C/c3ccccc3)cc2)nn1
[2]
  IC50: 6.28 µM (active)
[3]
  IC50: 40.6 µM (active)

## CCOc1ccc2c(ccc(/C=C/c3cc(C)c4cccnc4c3O)[n+]2C)c1
Melanocortin receptor 4
  IC50: > 2.39 µM (active)
[2]
  IC50: 8.71 µM (active)
[8]
  IC50: 34.5 µM (active)
[9]
  IC50: > 64.5 µM (inactive)
Nonstructural protein 1
  IC50: 0.676 µM (active)
[10]
  AC50: 0.276 µM (active)
Vero
  CC50: 13.1 µM (active)
[11]
  CC50: 95.9 µM (active)
[3]
  IC50: 11.7 µM (active)

## O=c1[nH]c(=O)c2nc3c4ccccc4c4ccccc4c3nc2[nH]1
[12]
  IC50: 2.56 µM (active)
[13]
  IC50: > 66.6 µM (inactive)

## Cc1ccc(-c2cc(C#N)c(=O)n(Cc3c(Cl)cccc3Cl)c2)cc1
[6]
  EC50: 41.9 µM (inactive)
[7]
  EC50: > 99 µM (inactive)

## C/C(NCCN1CCOCC1)=C1/C(=O)NC(=O)N(Cc2ccccc2)C1=O
Cytochrome P450 3A4
  AC50: inconclusive
Cytochrome P450 2C9
  AC50: 25.1 µM (inconclusive)

## COC(=O)c1ccc(OCC(=O)Nc2nn(-c3ccccc3)nc2C(N)=O)cc1
[12]
  IC50: 3.99 µM (active)
[13]
  IC50: > 66.6 µM (inactive)

## O=C(CSc1nnc(SCc2ccccc2)s1)N/N=C/c1c[nH]c2ccccc12
[12]
  IC50: 10.4 µM (active)
[13]
  IC50: > 66.6 µM (inactive)

## COc1cc(/C=C/[N+](=O)[O-])ccc1OC(=O)c1cccnc1
[14]
  IC50: 1.82 µM (active)
Beta-galactosidase
  EC50: > 40 µM (inactive)
[10]
  AC50: 4.36 µM (active)
Vero
  CC50: 17.5 µM (active)
[1]
  IC50: 5.87 µM (active)

Source: ChEMBL document CHEMBL1201862, “PubChem BioAssay data set” (2004)
